Test results from US9346786B2, “Pyrrolidine compounds” (Hoffmann-La Roche Inc., priority 2009, dated 2016).

The compounds below were run against recombinant human NK3 receptor (Homo sapiens (Human), UniProt P29371) (assay: biochemical). Conditions: [3H]SR142801, membranes of HEK293 cells transiently expressing recombinant human NK3 receptor; read-out: Data Ki (hNK-3 receptor affinity).
recombinant human NK3 receptor, sequence (P29371 whole entry): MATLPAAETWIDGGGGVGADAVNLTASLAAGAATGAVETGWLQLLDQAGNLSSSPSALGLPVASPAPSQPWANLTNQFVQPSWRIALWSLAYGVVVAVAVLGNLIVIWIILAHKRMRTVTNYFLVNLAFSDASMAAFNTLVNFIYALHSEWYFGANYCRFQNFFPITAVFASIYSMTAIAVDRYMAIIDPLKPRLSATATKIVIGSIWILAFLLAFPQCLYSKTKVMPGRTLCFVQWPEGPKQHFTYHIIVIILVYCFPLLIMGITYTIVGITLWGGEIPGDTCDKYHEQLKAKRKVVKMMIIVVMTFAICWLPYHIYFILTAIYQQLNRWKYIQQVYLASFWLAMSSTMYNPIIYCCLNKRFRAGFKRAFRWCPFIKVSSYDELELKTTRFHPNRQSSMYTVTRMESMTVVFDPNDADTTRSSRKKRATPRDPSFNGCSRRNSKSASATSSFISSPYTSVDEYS
Assay type: binding
`CC(C)CN(C(=O)Oc1ccc(F)cc1)[C@@H]1CN(C(=O)C2CCN(C(=O)C3(C)CC3)CC2)C[C@H]1c1ccc(Cl)c(Cl)c1` (racemic) [Example 3, rac-{(3S,4R)-4-(3,4-Dichloro-phenyl)-1-[1-(1-methyl-cyclopropanecarbonyl)-piperidine-4-carbonyl]-pyrrolidin-3-yl}-isobutyl-carbamic acid 4-fluoro-phenyl ester] showed a Ki of 276 nM. For `CCN(C(=O)Oc1ccc(F)cc1)[C@@H]1CN(C(=O)C2CCN(c3ccc(C(F)(F)F)cn3)CC2)C[C@H]1c1ccc(Cl)c(Cl)c1` [Example 114, [(3S,4R)-4-(3,4-Dichloro-phenyl)-1-(5′-trifluoromethyl-3,4,5,6-tetrahydro-2H-[1,2′]bipyridinyl-4-carbonyl)-pyrrolidin-3-yl]-ethyl-carbamic acid 4-fluoro-phenyl ester], the Ki was 1.6 nM. In the case of `CCN(C(=O)Oc1ccc(F)cc1)[C@@H]1CN(C(=O)C2CCN(C(C)=O)CC2)C[C@H]1c1ccc(Cl)cc1` [Example 82, [(3S,4R)-1-(1-Acetyl-piperidine-4-carbonyl)-4-(4-chloro-phenyl)-pyrrolidin-3-yl]-ethyl-carbamic acid 4-fluoro-phenyl ester], the Ki is reported as 8.2 nM. Compound `CCN(C(=O)Oc1ccc(F)cc1)[C@@H]1CN(C(=O)C2CCN(C(C)=O)CC2)C[C@H]1c1ccc(Cl)c(F)c1` [Example 80, [(3S,4R)-1-(1-Acetyl-piperidine-4-carbonyl)-4-(4-chloro-3-fluoro-phenyl)-pyrrolidin-3-yl]-ethyl-carbamic acid 4-fluoro-phenyl ester] has a Ki of 2 nM. Compound `CCN(C(=O)Oc1ccc(F)cc1)[C@@H]1CN(C(=O)C2CCN(c3ccc(C(C)=O)cn3)CC2)C[C@H]1c1ccc(F)c(F)c1` [Example 60, [(3S,4R)-1-(5′-Acetyl-3,4,5,6-tetrahydro-2H-[1,2′]bipyridinyl-4-carbonyl)-4-(3,4-difluoro-phenyl)-pyrrolidin-3-yl]-ethyl-carbamic acid 4-fluoro-phenyl ester] has a Ki of 4 nM. `CC1(C(=O)N2CCC(C(=O)N3C[C@@H](N(C(=O)Oc4ccc(F)cc4)C4CC4)[C@H](c4ccc(Cl)c(Cl)c4)C3)CC2)CC1` (racemic) [Example 4, rac-{(3S,4R)-4-(3,4-Dichloro-phenyl)-1-[1-(1-methyl-cyclopropanecarbonyl)-piperidine-4-carbonyl]-pyrrolidin-3-yl}-cyclopropyl-carbamic acid 4-fluoro-phenyl ester] gave a Ki of 10 nM. Work on `CCN(C(=O)Oc1ccc(F)cc1)[C@@H]1CN(C(=O)C2CCN(c3ccc(S(C)(=O)=O)cn3)CC2)C[C@H]1c1ccc(F)c(F)c1` [Example 64, [(3S,4R)-4-(3,4-Difluoro-phenyl)-1-(5′-methanesulfonyl-3,4,5,6-tetrahydro-2H-[1,2′]bipyridinyl-4-carbonyl)-pyrrolidin-3-yl]-ethyl-carbamic acid 4-fluoro-phenyl ester] yielded a Ki of 5 nM. `CCN(C(=O)Oc1ccc(F)cc1)[C@@H]1CN(C(=O)C2CCN(c3cnc(C#N)cn3)CC2)C[C@H]1c1ccc(F)c(F)c1` [Example 62, [(3S,4R)-1-[1-(5-Cyano-pyrazin-2-yl)-piperidine-4-carbonyl]-4-(3,4-difluoro-phenyl)-pyrrolidin-3-yl]-ethyl-carbamic acid 4-fluoro-phenyl ester] was tested, and the Ki was 6 nM. For `CCN(C(=O)Oc1ccc(F)cc1)[C@@H]1CN(C(=O)C2CCN(c3ccc(F)cn3)CC2)C[C@H]1c1ccc(F)c(F)c1` [Example 54, [(3S,4R)-4-(3,4-Difluoro-phenyl)-1-(5′-fluoro-3,4,5,6-tetrahydro-2H-[1,2′]bipyridinyl-4-carbonyl)-pyrrolidin-3-yl]-ethyl-carbamic acid 4-fluoro-phenyl ester], the Ki was 7 nM. `CCN(C(=O)Oc1ccc(F)cc1)[C@@H]1CN(C(=O)C2CCN(c3ccc(Cl)cn3)CC2)C[C@H]1c1ccc(Cl)cc1` [Example 110, [(3S,4R)-4-(4-Chloro-phenyl)-1-(5′-chloro-3,4,5,6-tetrahydro-2H-[1,2′]bipyridinyl-4-carbonyl)-pyrrolidin-3-yl]-ethyl-carbamic acid 4-fluoro-phenyl ester] gave a Ki of 4.8 nM. `CCN(C(=O)Oc1ccc(F)cc1)[C@@H]1CN(C(=O)C2CCN(C(=O)CC#N)CC2)C[C@H]1c1ccc(Cl)cc1` [Example 93, {(3S,4R)-4-(4-Chloro-phenyl)-1-[1-(2-cyano-acetyl)-piperidine-4-carbonyl]-pyrrolidin-3-yl}-ethyl-carbamic acid 4-fluoro-phenyl ester] gave a Ki of 7.1 nM. `CCN(C(=O)Oc1ccc(F)cc1)[C@@H]1CN(C(=O)C2CCN(C(=O)C3(C(F)(F)F)CCC3)CC2)C[C@H]1c1ccc(Cl)cc1` [Example 92, {(3S,4R)-4-(4-Chloro-phenyl)-1-[1-(1-trifluoromethyl-cyclobutanecarbonyl)-piperidine-4-carbonyl]-pyrrolidin-3-yl}-ethyl-carbamic acid 4-fluoro-phenyl ester] showed a Ki of 6.6 nM. With `CCN(C(=O)Oc1ccc(F)cc1)[C@@H]1CN(C(=O)C2CCN(c3ccc(C(C)=O)cn3)CC2)C[C@H]1c1ccc(Cl)c(Cl)c1` [Example 116, [(3S,4R)-1-(5′-Acetyl-3,4,5,6-tetrahydro-2H-[1,2′]bipyridinyl-4-carbonyl)-4-(3,4-dichloro-phenyl)-pyrrolidin-3-yl]-ethyl-carbamic acid 4-fluoro-phenyl ester] the Ki was 0.5 nM. With `CCN(C(=O)Oc1ccc(F)cc1)[C@@H]1CN(C(=O)C2CCN(C(=O)c3ccc(F)cn3)CC2)C[C@H]1c1ccc(Cl)cc1` [Example 102, {(3S,4R)-4-(4-Chloro-phenyl)-1-[1-(5-fluoro-pyridine-2-carbonyl)-piperidine-4-carbonyl]-pyrrolidin-3-yl}-ethyl-carbamic acid 4-fluoro-phenyl ester] the Ki was 8.2 nM. Work on `CCN(C(=O)Oc1ccc(F)cc1)[C@@H]1CN(C(=O)C2CCN(c3ccc(S(C)(=O)=O)cn3)CC2)C[C@H]1c1ccc(F)cc1` [Example 37, Ethyl-[(3S,4R)-4-(4-fluoro-phenyl)-1-(5′-methanesulfonyl-3,4,5,6-tetrahydro-2H-[1,2′]bipyridinyl-4-carbonyl)-pyrrolidin-3-yl]-carbamic acid 4-fluoro-phenyl ester] yielded a Ki of 8 nM. For `CCN(C(=O)Oc1ccc(F)cc1)[C@@H]1CN(C(=O)C2CCN(c3ccc(C#N)cn3)CC2)C[C@H]1c1ccc(F)c(F)c1` [Example 48, [(3S,4R)-1-(5′-Cyano-3,4,5,6-tetrahydro-2H-[1,2′]bipyridinyl-4-carbonyl)-4-(3,4-difluoro-phenyl)-pyrrolidin-3-yl]-ethyl-carbamic acid 4-fluoro-phenyl ester], the Ki was 2 nM. `CCN(C(=O)Oc1ccc(F)cc1)[C@@H]1CN(C(=O)C2CCN(c3cc(C#N)ccn3)CC2)C[C@H]1c1ccc(F)c(F)c1` [Example 53, [(3S,4R)-1-(4′-Cyano-3,4,5,6-tetrahydro-2H-[1,2′]bipyridinyl-4-carbonyl)-4-(3,4-difluoro-phenyl)-pyrrolidin-3-yl]-ethyl-carbamic acid 4-fluoro-phenyl ester] showed a Ki of 16 nM. In the case of `CC(C)N(C(=O)Oc1ccc(F)cc1)[C@@H]1CN(C(=O)C2CCN(c3ccc(C#N)nn3)CC2)C[C@H]1c1ccc(Cl)cc1` [Example 26, {(3S,4R)-4-(4-Chloro-phenyl)-1-[1-(6-cyano-pyridazin-3-yl)-piperidine-4-carbonyl]-pyrrolidin-3-yl}-isopropyl-carbamic acid 4-fluoro-phenyl ester], the Ki is reported as 46 nM. Compound `CC(C)N(C(=O)Oc1ccc(F)cc1)[C@@H]1CN(C(=O)C2CCN(c3ccc(C(F)(F)F)cn3)CC2)C[C@H]1c1ccc(Cl)cc1` [Example 25, [(3S,4R)-4-(4-Chloro-phenyl)-1-(5′-trifluoromethyl-3,4,5,6-tetrahydro-2H-[1,2′]bipyridinyl-4-carbonyl)-pyrrolidin-3-yl]-isopropyl-carbamic acid 4-fluoro-phenyl ester] has a Ki of 112 nM.

Same assay, conditions: read-out: Data Ki (hNK-3 receptor affinity)
`CCN(C(=O)Oc1ccc(F)cc1)[C@@H]1CN(C(=O)C2CCN(c3ccc(C(C)O)cn3)CC2)C[C@H]1c1ccc(Cl)cc1` (stereo partly drawn) [Example 108, {(3S,4R)-4-(4-Chloro-phenyl)-1-[5′-(1-hydroxy-ethyl)-3,4,5,6-tetrahydro-2H-[1,2]bipyridinyl-4-carbonyl]-pyrrolidin-3-yl}-ethyl-carbamic acid 4-fluoro-phenyl ester] was tested, and the Ki was 4.7 nM. Compound `CCN(C(=O)Oc1ccc(F)cc1)[C@H]1CN(C(=O)C2CCN(C(=O)C3(C)CC3)CC2)C[C@@H]1c1ccc(Cl)c(Cl)c1` [Example 6, {(3R,4S)-4-(3,4-Dichloro-phenyl)-1-[1-(1-methyl-cyclopropanecarbonyl)-piperidine-4-carbonyl]-pyrrolidin-3-yl}-ethyl-carbamic acid 4-fluoro-phenyl ester] has a Ki of 62 nM. In the case of `CCN(C(=O)Oc1ccc(F)cc1)[C@@H]1CN(C(=O)C2CCN(C(=O)C3CCC(=O)NC3)CC2)C[C@H]1c1ccc(Cl)cc1` (stereo partly drawn) [Example 103, {(3S,4R)-4-(4-Chloro-phenyl)-1-[1-(6-oxo-piperidine-3-carbonyl)-piperidine-4-carbonyl]-pyrrolidin-3-yl}-ethyl-carbamic acid 4-fluoro-phenyl ester], the Ki is reported as 32.6 nM. `CCN(C(=O)Oc1ccc(F)cc1)[C@@H]1CN(C(=O)C2CCN(c3ccc(F)cn3)CC2)C[C@H]1c1ccc(Cl)c(Cl)c1` [Example 112, [(3S,4R)-4-(3,4-Dichloro-phenyl)-1-(5′-fluoro-3,4,5,6-tetrahydro-2H-[1,2′]bipyridinyl-4-carbonyl)-pyrrolidin-3-yl]-ethyl-carbamic acid 4-fluoro-phenyl ester] was tested, and the Ki was 0.8 nM. `N#Cc1ccc(N2CCC(C(=O)N3C[C@@H](N(C(=O)Oc4ccc(F)cc4)C4CC4)[C@H](c4ccc(Cl)cc4)C3)CC2)nn1` [Example 32, {(3S,4R)-4-(4-Chloro-phenyl)-1-[1-(6-cyano-pyridazin-3-yl)-piperidine-4-carbonyl]-pyrrolidin-3-yl}-cyclopropyl-carbamic acid 4-fluoro-phenyl ester] gave a Ki of 52 nM. Work on `CCN(C(=O)Oc1ccc(F)cc1)[C@@H]1CN(C(=O)C2CCN(c3ccc(C)cn3)CC2)C[C@H]1c1ccc(F)c(F)c1` [Example 55, [(3S,4R)-4-(3,4-Difluoro-phenyl)-1-(5′-methyl-3,4,5,6-tetrahydro-2H-[1,2′]bipyridinyl-4-carbonyl)-pyrrolidin-3-yl]-ethyl-carbamic acid 4-fluoro-phenyl ester] yielded a Ki of 9 nM.
